Molecular target: T1, MAP3K8 (COT) (Homo sapiens, UniProt P41279)
T1 construct: purchased Thermo Fisher Scientific (Life Technologies) SelectScreen
Experiment: SelectScreen Z'LYTE
Format: biochemical
Settings: ATP 100 µM
How it was run: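 NU5455 was profiled across the SelectScreen Broad panel of kinase activity and binding assays. Z'LYTE reactions such as CSF1R ran at apparent Km ATP, while the Adapta CAMK1 assay used ATP listed as 10. Values are given as percent.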

T1 sequence (P41279 whole entry): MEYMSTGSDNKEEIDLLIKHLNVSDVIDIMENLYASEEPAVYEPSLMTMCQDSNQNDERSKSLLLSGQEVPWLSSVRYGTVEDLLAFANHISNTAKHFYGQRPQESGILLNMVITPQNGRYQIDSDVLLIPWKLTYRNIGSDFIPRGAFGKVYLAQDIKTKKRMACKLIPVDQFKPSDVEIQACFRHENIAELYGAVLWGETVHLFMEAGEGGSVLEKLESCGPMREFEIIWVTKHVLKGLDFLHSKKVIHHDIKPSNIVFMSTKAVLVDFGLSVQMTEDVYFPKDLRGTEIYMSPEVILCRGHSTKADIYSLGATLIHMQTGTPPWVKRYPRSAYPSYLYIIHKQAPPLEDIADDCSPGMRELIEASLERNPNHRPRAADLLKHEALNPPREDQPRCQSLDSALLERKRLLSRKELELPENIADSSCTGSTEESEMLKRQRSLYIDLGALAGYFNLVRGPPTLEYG

CN(C(=O)CN1CCOCC1)c1ccc2sc3c(-c4cccc5c(=O)cc(N6CC7CCC(C6)O7)oc45)cccc3c2c1 [NU5455] gave an inhibition at 1 µM of 3.5%.

Reference: PMC6934184, “Selective DNA-PKcs inhibition extends the therapeutic index of localized radiotherapy and chemotherapy” (The Journal of Clinical Investigation, 2019)
